One test in a line: Metabolic efficiency. It counts as in vivo, male C57BL/6J mice. The conditions noted are these: treatment period. The procedure: (§1) A second cohort of mice (n = 30) was acclimated to the laboratory conditions for 1 week prior to the onset of the experiment. Mice were housed individually and their body weight and food intake was recorded daily for a baseline period of 10 days. Given that ghrelin augments the intake of preferred diets ([28]), all mice received ad libitum access to a high-fat diet (60% of calories coming from fat), in addition to regular chow, to determine if CF801 altered dietary preference. Both chow and high-fat diet pellets were provided daily to mice ad libitum in pre-weighed amounts. Mice were then assigned to four different groups: non-injected control (NIC; n = 7), vehicle (0.9% saline) (VEH; n = 7), low-dose CF801 (11 μmol⋅kg^−1 – LD; n = 8) and high-dose CF801 (22 μmol⋅kg^−1 – HD; n = 8). Each day at 09:00 hours, mice were weighed and their food intake (both chow and high-fat diet) was recorded. After this, mice received an intraperitoneal injection of either CF801 or saline (except for the non-injected controls). Following the 13-day treatment period, half the animals in each group were sacrificed, while the remaining mice were allowed to recover from treatment. […] At this point, the remaining mice were sacrificed. Carcasses from all animals were frozen and stored at −80°C until they were scanned for body composition analyses. Immediately prior to analysis, all carcasses were thawed to room temperature and weighed in order to obtain measures relative to total carcass mass. EchoMRI carcass analyses were performed at Health Canada, Nutrition Research Division facilities using the EchoMRI-1100 (System ID EF-020) scanner. Each carcass was analyzed separately and measurements of total fat mass, total lean mass, and total water weight were obtained for each mouse.
Metabolic efficiency, defined as the amount of weight gained per calorie of energy consumed during a given time period, was calculated for each mouse during the baseline and treatment period. There were no differences in metabolic efficiency between any groups during the baseline period (data not shown).

Test [1] is described as follows: EchoMRI carcass body composition. The class given is in vivo, male C57BL/6J mice. The procedure:
as §1
Given these changes in metabolic efficiency as well as the decrease in RER observed in the calorimetry experiment, we hypothesized that CF801 treatment would result in less accumulation of fat. To determine if this was the case, we conducted EchoMRI analyses on every animal post-mortem to identify differences in body composition as a function between groups. […] Furthermore, there was a significant treatment effect on the fat mass:total mass ratio following the recovery period [F(1,15) = 9.245, p < 0.05; partial eta^2 = 0.716].

The subject of test [2] is stomach-derived ghrelinoma (SG-1) cells. Briefly: Cell-based ghrelin secretion assay (acyl ghrelin in medium, ELISA). The procedure: Ghrelin secretion studies were performed in stomach-derived ghrelinoma (SG-1) cells, cultured as described previously ([61], [62]). Cells were plated at a density of 5 × 10^4 cells/mL/well on to 24-well plates pre-coated with poly-D-lysine (day 0). On day 2, the cells were treated with the indicated concentrations of test compound CF801, 24 h ahead of the test period and with 50 μM sodium octanoate–bovine serum albumin (BSA), 16 h ahead of the test period. On day 3, the medium was aspirated and the cells were treated with the same concentrations of CF801 in 500 μL serum-free DMEM (Life Technologies, Grand Island, NY, USA) supplemented with 5 mM glucose and 50 μM sodium octanoate–BSA. After a 6-h incubation, the medium was collected, placed on ice, and immediately centrifuged at 800 × g for 5 min. Hydrochloric acid was added to the supernatant to achieve a final concentration of 0.1 N (for stabilization of acyl ghrelin) and stored at −80°C until analysis. Assay for acyl ghrelin and total were performed using commercial ELISA kits (EMD Millipore Corporation, Billerica, MA, USA) according to the manufacturer’s instructions and read in a PowerWave XS Microplate spectrophotometer (BioTek Instruments, Inc., Winooski, VT, USA).
SG-1 cells are derived from stomach ghrelinomas induced by expression of the SV40 large T-antigen under the preproghrelin promoter. These cells retain many of the features of ghrelin cells within primary cultures of gastric mucosal cells from mice ([61]). They also show elevated expression of both preproghrelin and GOAT mRNA with high levels of acylated ghrelin synthesis and secretion ([61]). In order to test CF801’s ability to reduce acyl ghrelin secretion, we performed an in vitro cell-based assay using an SG-1 cell line as previously described ([61], [62]).
Figure 1 CF801 inhibits acyl ghrelin secretion from SG-1 cells following 24 h of incubation. […] All values are expressed as mean ± SEM. *p < 0.05, ***p < 0.001 significant difference in acyl ghrelin concentrations with CF801 treatment when compared to untreated control (n = 6 wells).

The results in this text go back to paper PMC4585333, “Novel Regulator of Acylated Ghrelin, CF801, Reduces Weight Gain, Rebound Feeding after a Fast, and Adiposity in Mice” (Frontiers in Endocrinology, 2015).

“Also recorded” adds a separate entry of the source.

Consider GSAFLSPEHQRK KRRQRRR-NH2 [CF801], for which the “metabolic efficiency, low dose vs NIC and VEH” value in “Metabolic efficiency” (11 μmol⋅kg^−1 i.p., p < 0.05, overall F(1,29) = 9.086, partial eta^2 = 0.522) is “significantly lower metabolic efficiencies”. The “metabolic efficiency, high dose vs NIC and VEH” value in the test “Metabolic efficiency” (22 μmol⋅kg^−1 i.p., p < 0.05, overall F(1,29) = 9.086, partial eta^2 = 0.522) is “significantly lower metabolic efficiencies”. Besides, the “metabolic efficiency, high dose vs low dose” value in the test “Metabolic efficiency” (22 vs 11 μmol⋅kg^−1 i.p., p > 0.05) was “no different than animals receiving LD CF801”. Also, the “fat mass, low dose, after recovery” value in test [1] (11 μmol⋅kg^−1 i.p., 2 weeks after last treatment, vs VEH and NIC, p < 0.05) is “lower fat mass than mice in the VEH and NIC”. Moreover, the “fat mass:lean mass ratio, low dose vs NIC” value in test [1] (11 μmol⋅kg^−1 i.p., following recovery period, p < 0.05) is “significantly lower fat mass:lean mass ratio”. For the same sequence, the “fat mass:lean mass ratio, low dose vs VEH” value in test [1] (11 μmol⋅kg^−1 i.p., following recovery period, p = 0.058) is “tended to show a reduction in fat mass:lean mass ratio”. The “fat mass:total mass ratio, low dose vs NIC and VEH” value in test [1] (11 μmol⋅kg^−1 i.p., following recovery period, p's < 0.05, overall F(1,15) = 9.245, partial eta^2 = 0.716) is “significantly lower fat mass:total mass ratios”. Also, the “fat mass, low dose, after treatment period” value in test [1] (11 μmol⋅kg^−1 i.p., vs VEH, end of treatment, p > 0.05) is “lower fat mass compared to VEH-treated animals, but this was not statistically significant”. In addition, the “total fat mass, high dose, after recovery” value in test [1] (22 μmol⋅kg^−1 i.p., 2 weeks after treatment terminated, F(1,15) = 15.18, p < 0.05, partial eta^2 = 0.805) was “this decrease was more evident”. In test [1] (22 μmol⋅kg^−1 i.p., following recovery period, p < 0.05, overall F(1,15) = 7.735, partial eta^2 = 0.678), the “fat mass:lean mass ratio, high dose vs NIC and VEH” value is reported as “significantly lower fat mass:lean mass ratio”. Further, in test [1] (22 μmol⋅kg^−1 i.p., following recovery period, p's < 0.05, overall F(1,15) = 9.245, partial eta^2 = 0.716), the “fat mass:total mass ratio, high dose vs NIC and VEH” value was “significantly lower fat mass:total mass ratios”. Besides, in test [1] (22 μmol⋅kg^−1 i.p., vs VEH, right after 13-day treatment, F(1,14) = 3.54, p > 0.05 as printed, partial eta^2 = 0.515), the “total fat mass, high dose, after treatment period” value is “significantly lower”. Also, the “fat mass:lean mass ratio, high dose vs low dose” value in test [1] (22 vs 11 μmol⋅kg^−1, following recovery period, p > 0.05) was “no different than animals treated with LD CF801”. Further, in test [1] (between groups, p > 0.05), the lean body mass result was “no differences between the groups” and the water mass result is reported as “no differences between the groups”. In test [2] (100 μM CF801, 24 h incubation, vs untreated control, n = 6 wells, p < 0.05), the “acyl ghrelin secretion, 100 μM” value is on record as “Significant decreases in secretion; also recorded: significant reductions in acyl ghrelin secretion”. In addition, the “acyl ghrelin secretion, 300 μM” value in test [2] (300 μM CF801, 24 h incubation, vs untreated control, n = 6 wells, p < 0.05) is given as “Significant decreases in secretion; also recorded: significant reductions in acyl ghrelin secretion”. In addition, the “acyl ghrelin secretion, 6-h incubation” value in test [2] (6 h incubation, p > 0.05, preliminary, data not shown, even at highest concentration of 300 μM) is on record as “No significant effects; also recorded: no effect on acyl ghrelin secretion”.
